According to patent publication US10590078B2, “Sodium channel blockers” (Daewoong Pharmaceutical Co., Ltd., priority 2015, dated 2020):
Read-outs that look alike come from different tables or passages of the source.

Molecular target: human sodium ion channel 1.7 (hNav1.7) (Homo sapiens, UniProt Q15858)
Assay: Blocking effect against sodium ion channel Nav1.7, IonFlux16 auto patch clamp in hNav1.7 HEK293 cells
Format: cell-based
[1] = hNav1.7 HEK293 cells, inhibition of peak current after 50 seconds treatment, eight concentrations, read-out: IC50

Sequence of human sodium ion channel 1.7 (hNav1.7) (Q15858 whole entry): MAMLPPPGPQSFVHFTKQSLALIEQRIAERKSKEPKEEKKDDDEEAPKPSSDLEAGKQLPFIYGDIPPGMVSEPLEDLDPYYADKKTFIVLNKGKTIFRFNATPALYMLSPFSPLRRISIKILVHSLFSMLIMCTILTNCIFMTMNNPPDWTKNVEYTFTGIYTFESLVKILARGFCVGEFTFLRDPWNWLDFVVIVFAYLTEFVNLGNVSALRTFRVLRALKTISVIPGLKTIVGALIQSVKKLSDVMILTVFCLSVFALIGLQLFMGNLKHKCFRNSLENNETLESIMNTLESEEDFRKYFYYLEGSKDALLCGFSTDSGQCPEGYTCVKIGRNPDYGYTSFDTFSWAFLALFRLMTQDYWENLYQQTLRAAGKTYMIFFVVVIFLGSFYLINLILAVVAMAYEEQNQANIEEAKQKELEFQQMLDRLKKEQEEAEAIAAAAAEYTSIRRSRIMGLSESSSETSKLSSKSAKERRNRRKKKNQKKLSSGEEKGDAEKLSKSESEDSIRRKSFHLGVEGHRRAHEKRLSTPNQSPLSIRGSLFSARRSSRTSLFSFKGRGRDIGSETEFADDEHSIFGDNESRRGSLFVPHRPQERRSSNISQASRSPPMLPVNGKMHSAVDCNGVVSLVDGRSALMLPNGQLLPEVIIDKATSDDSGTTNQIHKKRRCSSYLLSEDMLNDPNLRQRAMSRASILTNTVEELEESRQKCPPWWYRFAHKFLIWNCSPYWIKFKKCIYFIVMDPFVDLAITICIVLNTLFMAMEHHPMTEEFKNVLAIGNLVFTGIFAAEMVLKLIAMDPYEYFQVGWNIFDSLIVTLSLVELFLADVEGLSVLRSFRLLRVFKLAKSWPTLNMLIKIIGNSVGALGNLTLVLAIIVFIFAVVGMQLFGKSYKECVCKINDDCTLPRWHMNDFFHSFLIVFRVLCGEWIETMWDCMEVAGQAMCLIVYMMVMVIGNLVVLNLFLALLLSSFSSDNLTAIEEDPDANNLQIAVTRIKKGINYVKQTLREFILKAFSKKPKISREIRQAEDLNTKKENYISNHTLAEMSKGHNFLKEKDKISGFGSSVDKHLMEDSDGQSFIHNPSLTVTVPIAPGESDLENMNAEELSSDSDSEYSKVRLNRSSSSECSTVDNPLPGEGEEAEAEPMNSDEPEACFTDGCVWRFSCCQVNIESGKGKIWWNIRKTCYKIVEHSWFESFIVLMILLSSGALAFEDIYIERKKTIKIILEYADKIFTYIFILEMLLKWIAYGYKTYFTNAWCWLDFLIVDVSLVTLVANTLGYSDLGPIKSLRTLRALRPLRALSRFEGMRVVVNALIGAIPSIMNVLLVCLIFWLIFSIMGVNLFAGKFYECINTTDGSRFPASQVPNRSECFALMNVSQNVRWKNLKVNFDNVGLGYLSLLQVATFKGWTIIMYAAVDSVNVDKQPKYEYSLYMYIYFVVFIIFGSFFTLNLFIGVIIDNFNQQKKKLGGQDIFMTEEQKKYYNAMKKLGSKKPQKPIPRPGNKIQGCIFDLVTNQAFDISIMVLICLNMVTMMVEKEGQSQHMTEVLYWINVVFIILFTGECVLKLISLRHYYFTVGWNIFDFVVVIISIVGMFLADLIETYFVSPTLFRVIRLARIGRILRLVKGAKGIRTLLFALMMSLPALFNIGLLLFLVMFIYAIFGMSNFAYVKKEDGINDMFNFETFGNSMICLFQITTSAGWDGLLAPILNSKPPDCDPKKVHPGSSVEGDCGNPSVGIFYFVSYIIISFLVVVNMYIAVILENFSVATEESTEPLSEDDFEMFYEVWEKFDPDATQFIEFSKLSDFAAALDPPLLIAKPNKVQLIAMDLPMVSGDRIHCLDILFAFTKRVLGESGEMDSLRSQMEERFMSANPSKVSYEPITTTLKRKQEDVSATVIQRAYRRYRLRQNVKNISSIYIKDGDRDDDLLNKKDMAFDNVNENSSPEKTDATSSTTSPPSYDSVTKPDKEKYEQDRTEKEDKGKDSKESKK

| SMILES | IC50 | IC50 [1] |
| --- | --- | --- |
| CS(=O)(=O)NC(=O)c1cc(Cl)c(-n2cc(-c3ccc(C(F)(F)F)cc3)c3cc(Cl)cnc32)cc1F [Example 188, 5-chloro-4-(5-chloro-3-(4-(trifluoromethyl)phenyl)-1H-pyrrolo[2,3-b]pyridin-1-yl)-2-fluoro-N-(methylsulfonyl)benzamide] | 50 nM | – |
| NC(=O)c1cc(Cl)c(-n2nc(-c3ccc(Cl)cc3F)c3cc(Cl)ccc32)cc1F [Example 292, 5-chloro-4-(5-chloro-3-(4-chloro-2-fluorophenyl)-1H-indazol-1-yl)-2-fluorobenzamide] | – | > 10000 nM |
| O=S(=O)(Nc1cscn1)c1cc(Cl)c(-n2nc(Cl)c3cc(-c4ccccc4)ccc32)cc1F [Example 276, 5-chloro-4-(3-chloro-5-phenyl-1H-indazol-1-yl)-2-fluoro-N-(thiazol-4-yl)benzenesulfonamide] | – | > 10000 nM |
| CS(=O)(=O)NC(=O)c1cc(Cl)c(-n2nc(-c3cccc(Cl)c3)c3cc(F)ccc32)cc1F [Example 149, 5-chloro-4-(3-(3-chlorophenyl)-5-fluoro-1H-indazol-1-yl)-2-fluoro-N-(methylsulfonyl)benzamide] | – | 40 nM |
| CS(=O)(=O)NC(=O)c1ccc(-n2nc(-c3cccc(C(F)(F)F)c3)c3cc(Cl)ccc32)c(F)c1 [Example 121, 4-(5-chloro-3-(3-(trifluoromethyl)phenyl)-1H-indazol-1-yl)-3-fluoro-N-(methylsulfonyl)benzamide] | – | 1090 nM |
| CS(=O)(=O)NC(=O)c1cc(Cl)c(-n2nc(-c3ccccc3)c3cc(-c4ccccc4)ccc32)cc1F [Example 264, 5-chloro-4-(3,5-diphenyl-1H-indazol-1-yl)-2-fluoro-N-(methylsulfonyl)benzamide] | – | 164 nM |
| CS(=O)(=O)NC(=O)c1cc(Cl)c(-n2nc(-c3cn[nH]c3)c3cc(Cl)ccc32)cc1F [Example 89, 5-chloro-4-(5-chloro-3-(1H-pyrazol-4-yl)-1H-indazol-1-yl)-2-fluoro-N-(methylsulfonyl)benzamide] | – | > 10000 nM |
| CC(=O)Nc1nn(-c2cc(F)c(C(=O)NS(C)(=O)=O)cc2Cl)c2ccc(Cl)cc12 [Example 6, 4-(3-acetamido-5-chloro-1H-indazol-1-yl)-5-chloro-2-fluoro-N-(methylsulfonyl)benzamide] | – | > 10000 nM |
| CS(=O)(=O)NC(=O)c1cc(F)c(-n2nc(-c3ccc(F)cc3F)c3cc(Cl)ccc32)cc1Cl [Example 115, 2-chloro-4-(5-chloro-3-(2,4-difluorophenyl)-1H-indazol-1-yl)-5-fluoro-N-(methylsulfonyl)benzamide] | – | 727 nM |
| Cc1cccc(-c2nn(-c3cc(F)c(C(=O)NS(C)(=O)=O)cc3Cl)c3ccc(Cl)cc23)c1 [Example 52, 5-chloro-4-(5-chloro-3-(m-tolyl)-1H-indazol-1-yl)-2-fluoro-N-(methylsulfonyl)benzamide] | 39 nM | – |
| CS(=O)(=O)NC(=O)c1cc(Cl)c(-n2cc(-c3ccc(C#N)cc3)c3cc(Cl)cnc32)cc1F [Example 187, 5-chloro-4-(5-chloro-3-(4-cyanophenyl)-1H-pyrrolo[2,3-b]pyridin-1-yl)-2-fluoro-N-(methylsulfonyl)benzamide] | – | 620 nM |
| CS(=O)(=O)NC(=O)c1cc(Cl)c(-n2nc(-c3ccccc3C(F)(F)F)c3cc(F)ccc32)cc1F [Example 145, 5-chloro-2-fluoro-4-(5-fluoro-3-(2-(trifluoromethyl)phenyl)-1H-indazol-1-yl)-N-(methylsulfonyl)benzamide] | – | 110 nM |
| CS(=O)(=O)NC(=O)c1cc(Cl)c(-n2nc(Cl)c3cc(-c4cncc(Cl)c4)ccc32)cc1F [Example 242, 5-chloro-4-(3-chloro-5-(5-chloropyridin-3-yl)-1H-indazol-1-yl)-2-fluoro-N-(methylsulfonyl)benzamide] | – | 809 nM |
| Cn1nccc1-c1ccc2c(cnn2-c2cc(F)c(S(=O)(=O)Nc3cscn3)cc2Cl)c1 [Example 285, 5-chloro-2-fluoro-4-(5-(1-methyl-1H-pyrazol-5-yl)-1H-indazol-1-yl)-N-(thiazol-4-yl)benzenesulfonamide] | – | > 10000 nM |
| CS(=O)(=O)NC(=O)c1cc(Cl)c(-n2nc(Cl)c3cc(-c4ccc(Cl)cc4)ccc32)cc1F [Example 255, 5-chloro-4-(3-chloro-5-(4-chlorophenyl)-1H-indazol-1-yl)-2-fluoro-N-(methylsulfonyl)benzamide] | – | 830 nM |
| CS(=O)(=O)NC(=O)c1ccc(-n2nc(-c3ccc(F)cc3)c3cc(Cl)ccc32)c(F)c1 [Example 123, 4-(5-chloro-3-(4-fluorophenyl)-1H-indazol-1-yl)-3-fluoro-N-(methylsulfonyl)benzamide] | – | 350 nM |
| CS(=O)(=O)NC(=O)c1ccc(-n2nc(Cl)c3cc(Cl)ccc32)c(Cl)c1 [Example 8, 3-chloro-4-(3,5-dichloro-1H-indazol-1-yl)-N-(methylsulfonyl)benzamide] | – | 880 nM |
| CS(=O)(=O)NC(=O)c1cc(Cl)c(-n2nc(-c3ccc(Cl)cc3)c3cc(F)ccc32)cc1F [Example 154, 5-chloro-4-(3-(4-chlorophenyl)-5-fluoro-1H-indazol-1-yl)-2-fluoro-N-(methylsulfonyl)benzamide] | – | 60 nM |
| CS(=O)(=O)NC(=O)c1cc(Cl)c(-n2nc(-c3cc(F)ccc3F)c3cc(Cl)ccc32)cc1F [Example 76, 5-chloro-4-(5-chloro-3-(2,5-difluorophenyl)-1H-indazol-1-yl)-2-fluoro-N-(methylsulfonyl)benzamide] | 90 nM | – |
| CS(=O)(=O)NC(=O)c1cc(Cl)c(-n2cc(-c3ccc(Cl)c(F)c3)c3cc(F)cnc32)cc1F [Example 210, 5-chloro-4-(3-(4-chloro-3-fluorophenyl)-5-fluoro-1H-pyrrolo[2,3-b]pyridin-1-yl)-2-fluoro-N-(methylsulfonyl)benzamide] | – | 60 nM |
| CS(=O)(=O)NC(=O)c1cc(Cl)c(-n2nc(-c3ccc(C#N)cc3)c3cc(Cl)ccc32)cc1F [Example 62, 5-chloro-4-(5-chloro-3-(4-cyanophenyl)-1H-indazol-1-yl)-2-fluoro-N-(methylsulfonyl)benzamide] | – | 554 nM |
| CS(=O)(=O)NC(=O)c1ccc(-n2nc(-c3cncc(Cl)c3)c3cc(Cl)ccc32)c(C#N)c1 [Example 104, 4-(5-chloro-3-(5-chloropyridin-3-yl)-1H-indazol-1-yl)-3-cyano-N-(methylsulfonyl)benzamide] | – | > 10000 nM |
| CS(=O)(=O)NC(=O)c1ccc(-n2nc(-c3ccc(Cl)cc3)c3cc(Cl)ccc32)c(F)c1 [Example 126, 4-(5-chloro-3-(4-chlorophenyl)-1H-indazol-1-yl)-3-fluoro-N-(methylsulfonyl)benzamide] | – | 990 nM |
| CS(=O)(=O)NC(=O)c1cc(Cl)c(-n2nc(Cl)c3cc(Br)ccc32)cc1F [Example 21, 4-(5-bromo-3-chloro-1H-indazol-1-yl)-5-chloro-2-fluoro-N-(methylsulfonyl)benzamide] | – | 175 nM |

Second part, the compound after the results:

| IC50 | IC50 [1] | SMILES |
| --- | --- | --- |
| – | 2130 nM | CS(=O)(=O)NC(=O)c1cc(Cl)c(-n2cc(Cl)c3ccc(OCc4ccccc4)cc32)cc1F [Example 271, 4-(6-(benzyloxy)-3-chloro-1H-indol-1-yl)-5-chloro-2-fluoro-N-(methylsulfonyl)benzamide] |
| – | 142 nM | CS(=O)(=O)NC(=O)c1cc(Cl)c(-n2cc(Cl)c3cc(OCc4ccccc4)ccc32)cc1F [Example 269, 4-(5-(benzyloxy)-3-chloro-1H-indol-1-yl)-5-chloro-2-fluoro-N-(methylsulfonyl)benzamide] |
| – | 133 nM | CS(=O)(=O)NC(=O)c1cc(Cl)c(-n2cc(Cl)c3cc(Cl)ccc32)cc1F [Example 266, 5-chloro-4-(3,5-dichloro-1H-indol-1-yl)-2-fluoro-N-(methylsulfonyl)benzamide] |
| – | 720 nM | CS(=O)(=O)NC(=O)c1cc(Cl)c(-n2cc(-c3ccccc3F)c3cccnc32)cc1F [Example 213, 5-chloro-2-fluoro-4-(3-(2-fluorophenyl)-1H-pyrrolo[2,3-b]pyridin-1-yl)-N-(methylsulfonyl)benzamide] |
| – | 837 nM | CS(=O)(=O)NC(=O)c1cc(Cl)c(-n2nc(-c3cccc(C#N)c3)c3ccccc32)cc1F [Example 181, 5-chloro-4-(3-(3-cyanophenyl)-1H-indazol-1-yl)-2-fluoro-N-(methylsulfonyl)benzamide] |
| – | 98 nM | CS(=O)(=O)NC(=O)c1cc(Cl)c(-n2nc(Cl)c3cc(OCc4cccc(F)c4)ccc32)cc1F [Example 38, 5-chloro-4-(3-chloro-5-((3-fluorobenzyl)oxy)-1H-indazol-1-yl)-2-fluoro-N-(methylsulfonyl)benzamide] |
| – | 110 nM | CS(=O)(=O)NC(=O)c1cc(Cl)c(-n2cc(-c3ccccc3F)c3cc(Cl)cnc32)cc1F [Example 191, 5-chloro-4-(5-chloro-3-(2-fluorophenyl)-1H-pyrrolo[2,3-b]pyridin-1-yl)-2-fluoro-N-(methylsulfonyl)benzamide] |
| – | 280 nM | CC(Oc1ccc2c(c1)c(Cl)nn2-c1cc(F)c(C(=O)NS(C)(=O)=O)cc1Cl)c1ccc(F)cc1 (stereo not drawn) [Example 39, 5-chloro-4-(3-chloro-5-(1-(4-fluorophenyl)ethoxy)-1H-indazol-1-yl)-2-fluoro-N-(methylsulfonyl)benzamide] |
| – | 540 nM | CS(=O)(=O)NC(=O)c1cc(Cl)c(-n2nc(-c3ccccc3Cl)c3cc(F)ccc32)cc1F [Example 144, 5-chloro-4-(3-(2-chlorophenyl)-5-fluoro-1H-indazol-1-yl)-2-fluoro-N-(methylsulfonyl)benzamide] |
| – | 850 nM | COc1ccccc1-c1nn(-c2cc(F)c(C(=O)NS(C)(=O)=O)cc2Cl)c2ccccc12 [Example 174, 5-chloro-2-fluoro-4-(3-(2-methoxyphenyl)-1H-indazol-1-yl)-N-(methylsulfonyl)benzamide] |
| – | 210 nM | Cc1ccccc1-c1nn(-c2cc(F)c(C(=O)NS(C)(=O)=O)cc2Cl)c2ccccc12 [Example 173, 5-chloro-2-fluoro-N-(methylsulfonyl)-4-(3-(o-tolyl)-1H-indazol-1-yl)benzamide] |
| – | 41 nM | CS(=O)(=O)NC(=O)c1cc(Cl)c(-n2nc(-c3ccccc3C(F)(F)F)c3cc(Cl)ccc32)cc1F [Example 63, 5-chloro-4-(5-chloro-3-(2-(trifluoromethyl)phenyl)-1H-indazol-1-yl)-2-fluoro-N-(methylsulfonyl)benzamide] |
